Assay: Rheological analysis of thermal gelation temperature (oscillation temperature sweep, abrupt increase in G′)
Format: physicochemical
Details: for αG, rate of change in gelation temperature as a function of additive composition: 2% w/v HPMC 2910, linear fit TGel=T0−αGx (FIG. 5)
Excerpt: Rheology is the most direct and reliable way to determine the sol-gel transition temperature, as well as characterize the rheological properties of both solution and subsequent gel. As a result, a rheometer was chosen to determine the sol-gel transition temperature of the HPMC solutions disclosed. Rheological properties such as dynamic moduli G′, G″, and complex viscosity η* change when the temperature is in the vicinity of the sol-gel transition. The rheometer is able to measure these properties during heating.
During the routine measurements in these studies, the following procedure was observed: (i) Each HPMC solution was placed on to the bottom Peltier plate of the Discovery Hybrid HR-2 rheometer (TA Instruments, Newcastle, Del., USA) equipped with a Peltier […] temperature system and a 50 mm parallel plate; (ii) Oscillation temperature sweep was performed to determine the effect of temperatures on complex viscosity (η*), storage modulus (G′), and loss modulus (G″) at angular frequency of 1 rad/s and stress applied was 0.4 Pa; (iii) In this study samples were heated in the range of 10-80° C. at a rate of 1° C./min. A thin layer of low-viscosity silicon oil was placed around the sample to prevent dehydration during measurements; (iv) All measurements were repeated in triplicate. The abrupt increase in G′, which is accompanied by a sharp increase in viscosity was considered to be a suitable way to define a thermal gelation temperature.
Statistical differences in the thermal gelation temperature of different hypromellose formulations containing different halide salt concentrations were determined using a one-way ANOVA test using Microsoft Excel Analysis Toolpak (Microsoft Inc., Redmond, Wash.). P values of <0.05 were considered statistically significant.

| SMILES | αG, rate of change in gelation temperature as a function of additive composition | factor by which αG-NaF is greater than αG-NaCl (2% w/v HPMC 2910) |
| --- | --- | --- |
| [Cl-].[Na+] [NaCl, sodium chloride] | ~4.0 | – |
| [F-].[Na+] [NaF, Sodium fluoride] | ~14.5 | ~3.6 times |

— patent US11369631B1, “Oral gelling liquid formulations” (UMM Rainforest Innovations, priority 2019, dated 2022)
